Experimental findings from US20240335443A1, “IMIDAZOLOPYRIDAZINE OR PYRAZOLOPYRIMIDINE COMPOUNDS AND COMPOSITIONS” (Anrui Biomedical Technology (Guangzhou) Co., Ltd., priority 2021, published 2024) are described below.

Experiment [1] has as its target T1, N-terminal His-tagged TYK2 pseudokinase domain (Homo sapiens, UniProt P29597).
T1 construct: the N-terminal His-tagged TYK2 pseudokinase domain; His (N); purchased Pharmaron
Nature of the experiment: TYK2 JH2 domain SPA binding assay. The conditions noted are these: displacement of H3 probe (20 nM), 30 min room temperature; class symbols. As to the method:
TYK2 JH2 Domain Binding Assay
After incubating at room temperature for 30 min, the inhibition was calculated by the displacement of [3H] 3 binding as determined by scintillation counting. Dose-response curves were generated to determine the concentration required to inhibit H3 probe binding by […] (IC50).

For experiment [2], the system named is IL-23 induced STAT3 in HEK-Blue™ IL-23 cells. The experiment in a line: IL-23 induced STAT3 QUANTI-Blue reporter assay in HEK-Blue IL-23 cells. The format is cell-based. Particulars: IL-23 0.1 ng/mL, SEAP levels, read-out: IL23 reporter assay (IC50 nM). The procedure:
Biological Example 2. IL-23 Induced STAT3 QUANTI-Blue in HEK-Blue™ IL-23 Cells
HEK-Blue™ IL-23 cells were prepared at 2×10^5 cells/ml for adding 5000 cell/well and incubate plates containing compounds+cells for 1 hour at 37° C. Prepare IL-23 (treatment at final conc. 0.1 ng/mL) during incubation and add 2 ul per well of prepared cytokine in media to appropriate wells. The plate is incubated for overnight at 37° C. The next day, QUANTI-Blue solution is prepared. 18 ul of QUANTI-Blue solution per well is added into a new 384-well clear flat bottom plate, then add 2 ul of induced and treated HEK-Blue cell supernatant from overnight plate. Incubate the plate at 37° C. for 2 hours and determine SEAP levels.

Setting [3] is: HEK-Blue IL-23 cells, class symbols.
Where [4] appears, read: HEK-Blue IL-23, HEK-Blue IL-23 cells, class symbols.

Like-named read-outs stand apart in the source and are kept apart here.

T1 sequence (P29597 589-875 limits assumed): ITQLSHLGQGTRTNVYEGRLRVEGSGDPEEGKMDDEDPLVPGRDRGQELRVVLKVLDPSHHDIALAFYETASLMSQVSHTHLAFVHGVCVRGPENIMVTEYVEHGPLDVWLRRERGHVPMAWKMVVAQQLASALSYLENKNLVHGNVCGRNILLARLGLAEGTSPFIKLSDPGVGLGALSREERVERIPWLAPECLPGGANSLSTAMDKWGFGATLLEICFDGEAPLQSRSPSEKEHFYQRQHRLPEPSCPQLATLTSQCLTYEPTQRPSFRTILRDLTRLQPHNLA

As to `CNc1cc(Nc2cccn(-c3ccccn3)c2=O)nn2c(C(=O)NC3CCC4CCOC43)cnc12` (racemic) [Compound 10a, N-(hexahydro-2H-cyclopenta[b]furan-6-yl)-8-(methylamino)-6-((2-oxo-2H-[1,2′-bipyridin]-3-yl)amino)imidazo[1,2-b]pyridazine-3-carboxamide], the concentration for half-maximal inhibition (IC50) in experiment [1] and in experiment [2] (setting [3]) was 10 to 100 nM each time.
`CNc1cc(Nc2cccn(-c3ccccn3)c2=O)nn2c(C(=O)NC3CCC4CCOC43)cnc12` (racemic) [Compound 10b, N-(hexahydro-2H-cyclopenta[b]furan-6-yl)-8-(methylamino)-6-((2-oxo-2H-[1,2′-bipyridin]-3-yl)amino)imidazo[1,2-b]pyridazine-3-carboxamide]: the IC50 in experiment [1] is above 1000 nM; in experiment [2] (setting [3]), at least 1000 nM.
Turning to `CNc1cc(Nc2cccc3c2OCCC3)nn2c(C(=O)N[C@@H]3C[C@@H]4CCO[C@@H]43)cnc12` (racemic) [Compound 24], the IC50 in experiment [1] and in experiment [2] (setting [4]) was 10 to 100 nM each time.
On to `CNc1cc(Nc2cccc3c2OCCC3)nn2c(C(=O)N[C@@H]3C[C@H]4CCO[C@H]43)cnc12` (racemic) [Compound 25], for which the IC50 in experiment [1] and in experiment [2] (setting [4]) was below 10 nM in each case.
With `CNc1cc(Nc2cccc3c2OCCC3)nc2c(C(=O)N[C@@H]3C[C@@H]4CCO[C@@H]43)cnn12` (racemic) [Compound 26], the IC50 in experiment [1] and in experiment [2] (setting [4]) was 10 to 100 nM in each case.
For the molecule `CNc1cc(Nc2cccc3c2OCCC3)nc2c(C(=O)N[C@@H]3C[C@H]4CCO[C@H]43)cnn12` (racemic) [Compound 27], the IC50 in experiment [1] and in experiment [2] (setting [4]) was below 10 nM each time.
Consider `CNc1cc(Nc2cccc(N3CCCC3=O)n2)nn2c(C(=O)NC(C)c3ncco3)cnc12` (racemic) [Compound 28], for which the IC50 is 10 to 100 nM in experiment [1] and below 10 nM in experiment [2] (setting [4]).
Regarding `CNc1cc(Nc2cccc(N3CCCC3=O)n2)nn2c(C(=O)NC3CCn4ccnc43)cnc12` (racemic) [Compound 29], the IC50 in experiment [1] and in experiment [2] (setting [4]) was below 10 nM throughout.
Consider `[2H]C([2H])([2H])Nc1cc(Nc2cccc(N3CCCC3=O)n2)nn2c(C(=O)NC3C[C@@H]4CCOC34)cnc12` (mixture of isomers) [Compound 30], for which the IC50 in experiment [2] (setting [4]) was in the range of 10 to 100 nM.
With `[2H]C([2H])([2H])Nc1cc(Nc2cccc(N3CCCC3=O)n2)nn2c(C(=O)NC3C[C@H]4CCOC34)cnc12` (mixture of isomers) [Compound 31], the IC50 in experiment [1] and in experiment [2] (setting [4]) was below 10 nM throughout.
For `CNc1cc(Nc2cccc(C)n2)nc2c(C(=O)NC3CCn4ccnc43)cnn12` (racemic) [Compound 32], the values for the IC50 in experiment [1] and in experiment [2] (setting [4]) were 10 to 100 nM and below 10 nM, respectively.
Regarding `CNc1cc(Nc2cccc(C)n2)nc2c(C(=O)NC3CCn4ncnc43)cnn12` (racemic) [Compound 33], the IC50 is 10 to 100 nM in experiment [1] and below 10 nM in experiment [2] (setting [4]).
In the case of `CNc1cc(Nc2cccn(-c3ccccn3)c2=O)nn2c(C(=O)NC(C)c3ncco3)cnc12` (racemic) [Compound 34], the IC50 in experiment [1] and in experiment [2] (setting [4]) was 10 to 100 nM in each case.
Turning to `[2H]C([2H])([2H])Nc1cc(Nc2cccn(-c3ccccn3)c2=O)nc2c(C(=O)NC(C)c3ncco3)cnn12` (racemic) [Compound 35], the IC50 in experiment [1] and in experiment [2] (setting [4]) was 10 to 100 nM each time.
As to `CNc1cc(Nc2cccn(-c3ccccn3)c2=O)nc2c(C(=O)NC3CCc4conc43)cnn12` (racemic) [Compound 37], the IC50 in experiment [1] was 10 to 100 nM; in experiment [2] (setting [4]) it was below 10 nM.
As to `[2H]c1onc2c1CCC2NC(=O)c1cnn2c(NC)cc(Nc3cccn(-c4ccccn4)c3=O)nc12` (racemic) [Compound 38], the figures for the half-maximal inhibitory concentration (IC50) in experiment [1] and in experiment [2] (setting [4]) were 10 to 100 nM and below 10 nM, respectively.
As to `CNc1cc(Nc2cccn(-c3ccccn3)c2=O)nc2c(C(=O)N[C@@H]3C[C@H]4CCO[C@H]43)cnn12` (racemic) [Compound 43], the IC50 in experiment [1] and in experiment [2] (setting [4]) was 10 to 100 nM throughout.
On to `CNc1cc(Nc2cccn(-c3ccn(C)n3)c2=O)nc2c(C(=O)NC(C)c3ncco3)cnn12` (racemic) [Compound 48], for which the IC50 in experiment [2] (setting [4]) fell in the range of 10 to 100 nM.
With `CNc1cc(Nc2cccn(-c3ccn(C)n3)c2=O)nc2c(C(=O)NC3C[C@@H]4CCOC34)cnn12` (mixture of isomers) [Compound 50], the IC50 in experiment [2] (setting [4]) is 100 to 1000 nM.
Take `CNc1cc(Nc2cccn(-c3cc(C)on3)c2=O)nn2c(C(=O)NC3C[C@H]4CCOC34)cnc12` (mixture of isomers) [Compound 56]: the IC50 in experiment [2] (setting [4]) is 10 to 100 nM.
As for `CNc1cc(Nc2cccn(-c3ccccn3)c2=O)nc2c(C(=O)NC(C)c3ncco3)cnn12` (single isomer, unassigned) [Compound 36a], the IC50 in experiment [2] (setting [3]) is at least 1000 nM.
For the molecule `CNc1cc(Nc2cccn(C3CC(C)(OC)C3)c2=O)nn2c(C(=O)N[C@@H]3C[C@H]4CCO[C@H]43)cnc12` (single isomer, unassigned) [Compound 92b], the IC50 in experiment [2] (setting [3]) lay within 10 to 100 nM.
Take `[2H]C([2H])([2H])NC(=O)c1nnc(NC(=O)C2CC2)cc1Nc1cccc(-c2ncn(C)n2)c1OC` [BMS-986165, reference compound]: the IC50 in experiment [2] (HEK-Blue IL-23 cells, numeric value (control)) was 5.93 nM.
Take `CNc1cc(Nc2cccn(-c3ccccn3)c2=O)nn2c(C(=O)N[C@@H]3C[C@H]4CCO[C@H]43)cnc12` [Compound 2, N-((1R,5S,7R)-2-oxabicyclo[3.2.0]heptan-7-yl)-8-(methylamino)-6-((2-oxo-2H-[1,2′-bipyridin]-3-yl)amino)imidazo[1,2-b]pyridazine-3-carboxamide]: in experiment [2] (setting [4]), the IC50 lay within 10 to 100 nM.
Still for that read-out and setting: the figure for `CNc1cc(Nc2cccn(-c3ccn(C)n3)c2=O)nn2c(C(=O)N[C@@H]3C[C@H]4CCO[C@H]43)cnc12` [Compound 3a, N-((1R,5S,7R)-2-oxabicyclo[3.2.0]heptan-7-yl)-6-((1-(1-methyl-1H-pyrazol-3-yl)-2-oxo-1,2-dihydropyridin-3-yl)amino)-8-(methylamino)imidazo[1,2-b]pyridazine-3-carboxamide] is below 10 nM; for `CNc1cc(Nc2cccn(-c3ccn(C)n3)c2=O)nn2c(C(=O)N[C@H]3C[C@@H]4CCO[C@@H]43)cnc12` [Compound 3b, N-((1S,5R,7S)-2-oxabicyclo[3.2.0]heptan-7-yl)-6-((1-(1-methyl-1H-pyrazol-3-yl)-2-oxo-1,2-dihydropyridin-3-yl)amino)-8-(methylamino)imidazo[1,2-b]pyridazine-3-carboxamide] it is 100 to 1000 nM.
With `[2H]C([2H])([2H])Nc1cc(Nc2cccn(-c3ccccn3)c2=O)nn2c(C(=O)N[C@@H]3C[C@H]4CCO[C@H]43)cnc12` [Compound 4a, N-((1R,5S,7R)-2-oxabicyclo[3.2.0]heptan-7-yl)-8-((methyl-d3)amino)-6-((2-oxo-2H-[1,2′-bipyridin]-3-yl)amino)imidazo[1,2-b]pyridazine-3-carboxamide], the IC50 in experiment [2] (setting [4]) lay in the range of 10 to 100 nM.
With `[2H]C([2H])([2H])Nc1cc(Nc2cccn(-c3ccccn3)c2=O)nn2c(C(=O)N[C@H]3C[C@@H]4CCO[C@@H]43)cnc12` [Compound 4b, N-((1S,5R,7S)-2-oxabicyclo[3.2.0]heptan-7-yl)-8-((methyl-d3)amino)-6-((2-oxo-2H-[1,2′-bipyridin]-3-yl)amino)imidazo[1,2-b]pyridazine-3-carboxamide], the IC50 in experiment [2] (setting [4]) was at least 1000 nM.
As to `[2H]C([2H])([2H])Nc1cc(Nc2cccn([C@H]3CC[C@H](OC([2H])([2H])[2H])CC3)c2=O)nn2c(C(=O)N[C@@H]3C[C@H]4CCO[C@H]43)cnc12` [Compound 11, N-((1R,5S,7R)-2-oxabicyclo[3.2.0]heptan-7-yl)-6-((1-((1r,4R)-4-(methoxy-d3)cyclohexyl)-2-oxo-1,2-dihydropyridin-3-yl)amino)-8-((methyl-d3)amino)imidazo[1,2-b]pyridazine-3-carboxamide], the IC50 in experiment [1] is below 10 nM.
On to `[2H]C([2H])([2H])Nc1cc(Nc2cccn(-c3ccccn3)c2=O)nn2c(C(=O)N[C@@H]3C[C@@H]3F)cnc12` [Compound 39], for which the IC50 in experiment [2] (setting [3]) was below 10 nM.
On to `CNc1cc(Nc2cccn(-c3nn(C)cc3F)c2=O)nn2c(C(=O)N[C@@H]3C[C@@H]3F)cnc12` [Compound 60], for which, in experiment [2] (setting [4]), the IC50 fell in the range of 10 to 100 nM.
As for `[2H]C([2H])([2H])Nc1cc(Nc2cccn(C3CCC4(CC3)COC4)c2=O)nc2c(C(=O)N[C@@H]3C[C@H]4CCO[C@H]43)cnn12` [Compound 67], in experiment [2] (setting [4]), the IC50 was 10 to 100 nM.
For the molecule `[2H]C([2H])([2H])Nc1cc(Nc2cccn([C@H]3CC[C@@H](OC)CC3)c2=O)nn2c(C(=O)N[C@@H]3C[C@@H]3F)cnc12` [Compound 71], the IC50 in experiment [2] (setting [4]) was 10 to 100 nM.
Take `[2H]C([2H])([2H])Nc1cc(Nc2cccn(C3CCC4(CC3)COC4)c2=O)nc2c(C(=O)N[C@@H]3C[C@@H]3F)cnn12` [Compound 74]: the IC50 in experiment [2] (setting [4]) lay within 10 to 100 nM.
For `[2H]C([2H])([2H])Nc1cc(Nc2cccn(C3C[C@H]4CC[C@@H](C3)O4)c2=O)nc2c(C(=O)N[C@@H]3C[C@H]4CCO[C@H]43)cnn12` (stereo partly shown) [Compound 77], in experiment [2] (setting [4]), the IC50 is 10 to 100 nM.
As to `[2H]C([2H])([2H])Nc1cc(Nc2cccn(C3C[C@H]4CC[C@@H](C3)O4)c2=O)nn2c(C(=O)N[C@@H]3C[C@H]4CCO[C@H]43)cnc12` (stereo partly shown) [Compound 78], the IC50 in experiment [2] (setting [4]) lay within 10 to 100 nM.
